The source of these data is patent US6342219B1 (Board of Regents, The University of Texas System, priority 1999, dated 2002).

Assay [1] concerns guinea pig VEGF in line 10 guinea pig tumor sections. Briefly: Immunohistochemistry, endothelial cell staining, guinea pig Line 10 tumor. The assay is classed as binding. The arrangement: key: −, negative; +/−, very weak; 1+, weak; 2+, moderate; 3+, strong; 4+, very strong. The settings on record: acetone fixed frozen sections. As to the method: Guinea pig line 10 hepatocellular carcinoma tumor cells (obtained from Dr. Ronald Neuman, NIH, Bethesda, Md.) were grown in strain 2 guinea pigs (NCI, Bethesda, Md.). The human tumors NCI-H358 non-small cell lung carcinoma (NSCLC), NCI-H460 NSCLC (both obtained from Dr. Adi Gazdar, UT Southwestern, Dallas, Tex.), HT29 colon adenocarcinoma (American Type Culture Collection), and L540CY Hodgkin's lymphoma (obtained from Professor V. Diehl, Cologne, Germany) were grown as xenografts in CB17 SCID mice (Charles River, Wilmington, Mass.).
(§1) Tumors were snap frozen in liquid nitrogen and stored at −70° C. Frozen samples of tumor specimens from patients were obtained from the National Cancer Institute Cooperative Human Tissue Network (Southern Division, Birmingham, Ala.). Immunohistochemistry was performed as described by Burrows et al. (1995).

A further assay relates to A673 rhabdomyosarcoma. Kind of assay: Treatment of established A673 tumors. The arrangement: species or system mice. Conditions: mouse, in vivo.
Another assay has as its target T1, VEGF (Homo sapiens, UniProt P15692).
T1 sequence (P15692 27-191 isoform P15692-4): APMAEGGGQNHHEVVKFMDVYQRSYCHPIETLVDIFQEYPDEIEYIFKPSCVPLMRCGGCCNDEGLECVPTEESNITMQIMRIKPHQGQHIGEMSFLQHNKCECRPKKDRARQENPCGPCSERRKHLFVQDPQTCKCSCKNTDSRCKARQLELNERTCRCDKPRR
Briefly: Competition ELISA (epitope groups). The format is binding. As to the method: Competition ELISA studies were performed by first labeling the antibodies with peroxidase according to the manufacturer's instructions (EZ-Link Activated Peroxidase, Pierce). […] Approximately 0.5-2.0 μg/ml of peroxidase labeled test antibody was incubated on the plate in the presence of either buffer alone, an irrelevant IgG, or the other anti-VEGF competing antibodies in a 10-100 fold excess.
The assay was done in triplicate at least twice for each combination of labeled and competitor antibody. Two antibodies were considered to be in the same epitope group if they cross-blocked each other's binding by greater than 80%.

Assay [2] has as its system LS174T colon adenocarcinoma. Kind of assay: Treatment of established LS174T tumors. The arrangement: species or system mice. The settings on record: mouse, in vivo.
For the next assay, the system named is KDR on ABAE cells. Briefly: 125I-VEGF binding studies on KDR expressing endothelial cells. Further details: species or system bovine.
Assay [3] relates to VEGF alone or VEGF associated with sFlk-1 (VEGF:Flk-1). Briefly: Indirect and capture ELISA: reactivity with VEGF alone or VEGF:Flk-1. The assay is classed as binding, human VEGF; mouse Flk-1. The method, then:
The Flk-1/SEAP protein was produced and purified as described by Tessler et al. (1994). Basically, the extracellular domain of Flk-1 (sFlk-1) was produced in Spodoptera frugiperda (Sf9) cells and purified by immunoaffinity techniques utilizing a monoclonal anti-Flk-1 antibody (1A8). sFlk-1 was then biotinylated and bound on avidin-coated plates.
The reactivity was determined as described above for the initial screening.
A capture ELISA was also developed. In the capture ELISA, microtiter plates were coated overnight at 4° C. with 100 ng of the indicated antibody. […] Streptavidin conjugated to peroxidase (Kirkegaard & Perry Laboratories, Inc.), diluted 1:2000, was used as a second layer and developed.
In general terms: In an ELISA, binding on a coated surface is turned into a signal by an enzyme label.

Another assay relates to VEGFR2 in PAE/KDR cells. Briefly: VEGF-induced phosphorylation of VEGFR2 (immunoprecipitation and Western blot). Conditions: antibodies at 100 nM, 15 min. The assay is classed as cell-based, porcine. As to the method: PAE/KDR, PAE/FLT, and bEND.3 cells were grown to 80-90% confluency in 100 mm tissue dishes in media containing 5% serum. The cells were then serum starved for 24 hours in media containing 0.1% serum. After pretreatment with 100 […] in PBS for 30 min, the cells were incubated with 5 nM (200 ng/ml) VEGF165, 5 nM (100 ng/ml) bFGF (R&D Systems, Minneapolis, Minn.), or A673 tumor conditioned media in the presence or absence of control or test antibodies for additional 15 min.
The cells were then washed with ice-cold PBS containing 10 mM EDTA, 2 mM sodium fluoride, and 2 mM sodium orthovanadate and lysed in lysis buffer (50 mM Tris, 150 mM NaCl, 1% Nonidet P-40, 0.25% sodium deoxycholate, 0.1% CHAPS, 5 mM EDTA, 1.5 mM MgCl2, 2 mM sodium fluoride, 2 mM sodium orthovanadate, 10% glycerol and protease inhibitors (Complete Protease Inhibitor Cocktail tablets, Boehringer Mannheim)). The lysates were clarified by centrifugation and resulting supernatant used for immunoprecipitation.
The reactions using the chicken anti-FLT-1 antibody were subsequently incubated with a bridging goat anti-chicken antibody (Kirkegaard and Perry Laboratories, Inc.) for 1 h at 4° C. […]
In general terms: Immunoblotting shows a protein as a band on a membrane.

In assay [4] the test system is human tumors from cancer patients. Kind of assay: Immunohistochemistry, endothelial cell staining, human tumors. Further details: key: −, negative; +/−, very weak; 1+, weak; 2+, moderate; 3+, strong; 4+, very strong. The settings on record: acetone fixed frozen sections. The assay is classed as binding. As to the method: as §1

For “2C3: anti-VEGF monoclonal antibody, IgG2a, k, produced by hybridoma ATCC PTA 1595; blocks VEGF binding to VEGFR2 but not VEGFR1 [Clone 2C3]”, the “Endothelial Cell Staining, Guinea Pig Tumor (Line 10)” value in assay [1] is on record as “−”. Also, the “Effect on growth of established A673 tumors” value in the assay on A673 rhabdomyosarcoma is listed as “significantly slowed the growth”. The “Cross-reactivity of 2C3 and A4.6.1 in competition studies” value in the assay with VEGF is reported as “not cross-reactive”. In the assay with VEGF (determined through competitive ELISA), the “Epitope Group” value is recorded as 4. Further, the “Effect on growth of established LS174T tumors” value in assay [2] is reported as “significantly slowed the growth”. Also, the “Blocking of 125I-VEGF binding to KDR” value with KDR on ABAE cells is given as “blocks VEGF from binding to KDR in a concentration dependent manner”. Moreover, the “Predominant Reactivity” value in assay [3] is on record as “VEGF”. The “Blocking of VEGF-induced phosphorylation of VEGFR2” value in the assay on VEGFR2 in PAE/KDR cells is reported as “block”. In addition, the “Endothelial Cell Staining, Hu Tumor (various)” value in assay [4] is given as “−”.
